Measurements: paper PMC12527977, “Discovery of a novel tetrapeptide as glucose homeostasis modulator with bifunctionalities of targeting DPP‐IV and microbiota” (iMeta, 2025)
Where a SMILES comes first, the peptide text is derived from it.

Key:
[1] = tested on: porcine pepsase and trypsase; test: Simulated digestive stability of peptides (pepsase then trypsase); type: in vitro ADME; conditions: in words; 5.0 mg/mL peptide, pepsase 5000 U/mL pH 3.0 37 °C 2 h, then trypsase 100 U/mL pH 7.0 37 °C 2 h, LC-MS
Procedure: The in vitro digestibility of the peptides was determined according to the method described by Ohanenye et al. with some modifications. Briefly, 5.0 mg/mL peptides were mixed with 5000 U/mL porcine pepsase (pH 3.0). The mixture was incubated with continuous shaking in a water bath at 37 ℃ for 2 h. Then, the mixture was adjusted to pH 7.0, and a final concentration of 100 U/mL trypsase was added, followed by continuous shaking at 37 ℃ for another 2 h. After digestion, the enzyme was inactivated, and the mixture was incubated in a water bath (100 ℃) for 20 min. Subsequently, the mixture was centrifuged at 6000 rpm for 20 min, after which the supernatants were collected for further analysis. The concentrations of peptides in the digestions and TPH were determined via AB SCIEX QTrap 6600+ (AB Sciex, Framingham, Massachusetts).

[2] = Blood pharmacokinetics of VAMP, 10 mg/kg i.v. or p.o.; type: in vivo; conditions: mouse, po
Procedure: FIGURE 2 VAMP inhibits intestinal dipeptidyl peptidase IV (DPP‐IV) and increases the abundance of A. muciniphila. (A) The experimental scheme for (B–O) is shown, n = 6 mice/group. HFD‐fed mice were treated with PBS (vehicle group) or VAMP (50 mg/kg, VAMP group) for 8 weeks by oral gavage. (B) The body weight change, (C) FBG level, (D) intestinal active GLP‐1 levels, (E) plasma active GLP‐1 levels, (F) OGTT curve, (G) AUC of the OGTT, and (H) HOMA‐IR index were evaluated. (I) Intestinal permeability was measured by plasma fluorescence intensity after gavage with FITC‐dextran 4000. (J) The plasma levels of LPS, (K) TNF‐α, and (L) IL‐1β were determined. (M) Carnoy‐fixed colonic tissue sections were stained with Alcian blue/periodic acid‐Schiff. Scale bars, 100 µm. […] (O) The relative expression of Tjp1, Ocln, Cldn1, Cldn3, Cldn4, Cldn5, and Muc2 mRNAs in colonic tissue was determined. (P) The blood pharmacokinetics of 10 mg/kg VAMP administered by injection (i.v.) or gavage (p.o.) over time were evaluated. (Q) The tissue distribution of VAMP at the time of peak plasma concentration (30 min) after the administration of 10 mg/kg VAMP by gavage was determined (n = 4). […] (U) The change in bacterial abundance at the species level after VAMP treatment was determined via random forest analysis. […]
(§1) We first determined the VAMP metabolic kinetics in model mice.

[3] = Tissue distribution of VAMP 30 min after 10 mg/kg by gavage; type: in vivo, mouse; conditions: for Tissue distribution, relative proportion in Heart / Tissue distribution, relative proportion in Intestinal content / Tissue distribution, relative proportion in Intestinal tissue / Tissue distribution, relative proportion in Kidney / Tissue distribution, relative proportion in Liver / Tissue distribution, relative proportion in Lung / Tissue distribution, relative proportion in Spleen: 10 mg/kg by gavage, 30 min
Procedure: FIGURE 2 VAMP inhibits intestinal dipeptidyl peptidase IV (DPP‐IV) and increases the abundance of A. muciniphila. (A) The experimental scheme for (B–O) is shown, n = 6 mice/group. HFD‐fed mice were treated with PBS (vehicle group) or VAMP (50 mg/kg, VAMP group) for 8 weeks by oral gavage. (B) The body weight change, (C) FBG level, (D) intestinal active GLP‐1 levels, (E) plasma active GLP‐1 levels, (F) OGTT curve, (G) AUC of the OGTT, and (H) HOMA‐IR index were evaluated. (I) Intestinal permeability was measured by plasma fluorescence intensity after gavage with FITC‐dextran 4000. (J) The plasma levels of LPS, (K) TNF‐α, and (L) IL‐1β were determined. (M) Carnoy‐fixed colonic tissue sections were stained with Alcian blue/periodic acid‐Schiff. Scale bars, 100 µm. (N) Blinded colonic mucus layer measurements were made from Alcian blue‐stained sections. (O) The relative expression of Tjp1, Ocln, Cldn1, Cldn3, Cldn4, Cldn5, and Muc2 mRNAs in colonic tissue was determined. (P) The blood pharmacokinetics of 10 mg/kg VAMP administered by injection (i.v.) or gavage (p.o.) over time were evaluated. (Q) The tissue distribution of VAMP at the time of peak plasma concentration (30 min) after the administration of 10 mg/kg VAMP by gavage was determined (n = 4). (R) PCoA was performed using the Bray‒Curtis distance. (S, T) Taxonomic cladograms were generated by LEfSe analysis. The blue color indicates enriched taxa in the VAMP group, and the red color indicates enriched taxa in the vehicle group. The size of each circle is proportional to the taxon's abundance. (U) The change in bacterial abundance at the species level after VAMP treatment was determined via random forest analysis. (V) Growth curve of A. muciniphila cultured in BHI media supplemented with VAMP (50 μM) or PBS (Vehicle) and then grown anaerobically. (W−Y) RNA‐seq analysis of the A. muciniphila cultured in BHI media supplemented with VAMP (50 μM) or PBS control (Vehicle) was performed (n = 3). (W) PCA of transcriptome. (X) Biofunction changes of A. muciniphila by VAMP treatment via KEGG enrichment analysis. (Y) Volcano plot of transcriptome sequencing of Vehicle and VAMP groups. (Z) Levels of peptidoglycan by VAMP treatment. *p < 0.05 and **p < 0.01 versus the vehicle group. AUC, area under the curve; BHI, brain heart infusion; FBG, fasting blood glucose; GLP‐1, glucagon‐like peptide‐1; HOMA‐IR, homeostatic model assessment of insulin resistance; IL‐1β, interleukin‐1β; LEfSe, linear discriminant analysis effect size; LPS, lipopolysaccharide; OGTT, oral glucose tolerance test; PCoA, principal coordinate analysis; TNF‐α, tumor necrosis factor α.
as §1

in vitro [4] = type: in vitro ADME; conditions: cells or culture medium, VAMP (%) remaining
Source text: (§2) The levels of VAMP at different time points were quantified by targeted metabolomics.

[5] = tested on: faeces-derived bacterial community; test: in vitro; type: in vitro ADME
Source text: as §2

in vitro [6] = type: in vitro ADME, Akkermansia muciniphila; conditions: cells or culture medium, VAMP remaining, incubated with A. muciniphila
Source text: as §2

DPP-IV [7] = target: T1, DPP-IV (Homo sapiens, UniProt P27487); test: DPP-IV inhibitory activity of peptides (DPP-IV-Glo Protease Assay Kit); type: biochemical; design: purchased QiZheng Biotech (Shanghai, China) IBDPP0901; conditions: for DPP-IV inhibitory activity: DPP-IV-Glo Protease Assay Kit, control = 0, sheet S2F, in % (unit assumed)
Target sequence in this assay (P27487 whole entry): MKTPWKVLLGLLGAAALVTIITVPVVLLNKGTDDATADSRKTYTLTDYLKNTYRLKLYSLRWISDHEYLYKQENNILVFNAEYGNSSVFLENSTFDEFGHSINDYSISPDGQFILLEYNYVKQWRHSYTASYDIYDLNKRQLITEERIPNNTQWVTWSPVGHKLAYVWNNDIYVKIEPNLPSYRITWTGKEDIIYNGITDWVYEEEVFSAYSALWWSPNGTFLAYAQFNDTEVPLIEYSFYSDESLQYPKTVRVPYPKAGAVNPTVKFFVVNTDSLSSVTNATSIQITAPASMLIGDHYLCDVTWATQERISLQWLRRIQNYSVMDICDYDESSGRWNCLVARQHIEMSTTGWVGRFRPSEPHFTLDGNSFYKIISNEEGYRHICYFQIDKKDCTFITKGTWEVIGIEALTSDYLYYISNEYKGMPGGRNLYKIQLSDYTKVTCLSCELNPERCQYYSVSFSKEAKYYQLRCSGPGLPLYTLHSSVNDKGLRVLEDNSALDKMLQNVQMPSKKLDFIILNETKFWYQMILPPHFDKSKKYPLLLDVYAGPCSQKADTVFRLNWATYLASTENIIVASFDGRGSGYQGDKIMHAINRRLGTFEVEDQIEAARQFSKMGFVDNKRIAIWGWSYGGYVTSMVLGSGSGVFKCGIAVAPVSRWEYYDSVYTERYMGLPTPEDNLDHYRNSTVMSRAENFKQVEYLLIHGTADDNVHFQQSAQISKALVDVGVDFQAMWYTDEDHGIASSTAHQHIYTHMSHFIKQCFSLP

DPP-IV [8] = target: T1, DPP-IV; test: Surface plasmon resonance (Biacore 8K, CM5 chip, 25 °C); type: binding; design: purchased QiZheng Biotech (Shanghai, China) IBDPP0901; conditions: SPR, Table S3; read-out: KD values

Structure (SMILES): CSCC[C@H](NC(=O)[C@H](C)NC(=O)[C@@H](N)C(C)C)C(=O)N1CCC[C@H]1C(=O)O [VAMP] (H-VAMP-OH)
- Resistance to simulated gastric pepsase and trypsase digestion [1]: readily resistant
- bioavailability ([2]; blood, mice, 10 mg/kg p.o. vs i.v., printed in picture Fig 2P): 10.5%
- Tmax ([2]; plasma, 10 mg/kg by gavage, read-out: Time of peak plasma concentration (converted)): 30 min
- Tissue distribution, relative proportion in Heart ([3]; animal 1): 0.7129%
- Tissue distribution, relative proportion in Intestinal content ([3]; animal 1): 72.8435%
- Tissue distribution, relative proportion in Intestinal tissue ([3]; animal 1): 17.3859%
- Tissue distribution, relative proportion in Kidney ([3]; animal 1): 1.873%
- Tissue distribution, relative proportion in Liver ([3]; animal 1): 2.36%
- Tissue distribution, relative proportion in Lung ([3]; animal 1): 1.2931%
- Tissue distribution, relative proportion in Spleen ([3]; animal 1): 3.531%
- Tissue distribution, relative proportion in Heart ([3]; animal 2): 0.3824%
- Tissue distribution, relative proportion in Intestinal content ([3]; animal 2): 73.0882%
- Tissue distribution, relative proportion in Intestinal tissue ([3]; animal 2): 19.9706%
- Tissue distribution, relative proportion in Kidney ([3]; animal 2): 1.279%
- Tissue distribution, relative proportion in Liver ([3]; animal 2): 2.103%
- Tissue distribution, relative proportion in Lung ([3]; animal 2): 0.9118%
- Tissue distribution, relative proportion in Spleen ([3]; animal 2): 2.265%
- Tissue distribution, relative proportion in Heart ([3]; animal 3): 0.4562%
- Tissue distribution, relative proportion in Intestinal content ([3]; animal 3): 74.7307%
- Tissue distribution, relative proportion in Intestinal tissue ([3]; animal 3): 19.1872%
- Tissue distribution, relative proportion in Kidney ([3]; animal 3): 0.6681%
- Tissue distribution, relative proportion in Liver ([3]; animal 3): 1.699%
- Tissue distribution, relative proportion in Lung ([3]; animal 3): 0.5703%
- Tissue distribution, relative proportion in Spleen ([3]; animal 3): 2.689%
- Tissue distribution, relative proportion in Heart ([3]; animal 4): 0.5116%
- Tissue distribution, relative proportion in Intestinal content ([3]; animal 4): 76.0476%
- Tissue distribution, relative proportion in Intestinal tissue ([3]; animal 4): 16.2858%
- Tissue distribution, relative proportion in Kidney ([3]; animal 4): 1.305%
- Tissue distribution, relative proportion in Liver ([3]; animal 4): 2.163%
- Tissue distribution, relative proportion in Lung ([3]; animal 4): 0.882%
- Tissue distribution, relative proportion in Spleen ([3]; animal 4): 2.805%
- VAMP remaining in the intestinal content at the time of peak plasma concentration ([3]; after gavage): 74.18%
- remaining at 3 h, 100 μM (in vitro [4]; 3 h): 98.5%
- remaining at 6 h, 100 μM (in vitro [4]; 6 h): 84.6%
- remaining at 12 h, 100 μM (in vitro [4]; 12 h): 51.7%
- remaining at 36 h, 100 μM (in vitro [4]; 36 h): 2.1%
- remaining at 48 h, 100 μM (in vitro [4]; 48 h): 0%
- Degradation of VAMP in faeces-derived microbial community culture [5]: degraded by gut microbiota
- remaining at 3 h, 100 μM (in vitro [6]; time 3): 98.6%
- remaining at 6 h, 100 μM (in vitro [6]; time 6): 95.4%
- remaining at 9 h, 100 μM (in vitro [6]; time 9): 93.3%
- remaining at 12 h, 100 μM (in vitro [6]; time 12): 79.6%
- remaining at 24 h, 100 μM (in vitro [6]; time 24): 28.1%
- remaining at 36 h, 100 μM (in vitro [6]; time 36): 21.4%
- remaining at 48 h, 100 μM (in vitro [6]; time 48): 19.3%
- inhibition at 1 µg/mL (DPP-IV [7]): 50.7%
- inhibition at 20 µg/mL (DPP-IV [7]): 52.1%
- inhibition at 50 µg/mL (DPP-IV [7]): 68.9%
- inhibition at 100 µg/mL (DPP-IV [7]): 77.6%
- inhibition at 200 µg/mL (DPP-IV [7]): 81.5%
- DPP-IV inhibitory activity (DPP-IV [7]; replicate 1): 68.9829
- DPP-IV inhibitory activity (DPP-IV [7]; replicate 2): 67.7707
- DPP-IV inhibitory activity (DPP-IV [7]; replicate 3): 61.9665
- IC50 (DPP-IV [7]; Table S3, read-out: IC50): 1 µM
- Kd (DPP-IV [8]): 6.89 µM
